{
  "source": "patent US20110245104A1",
  "about": "“Method for screening the sensitizing properties of chemical compounds” (priority 2010, published 2011)",
  "key": {"keratins": {"tested_on": "keratins", "experiment": "Protein cross-linking by bidentate haptens (SDS gels of blebs)", "format": "cell-based, human", "details": "bidentate hapten", "text": "In SDS-PAGE experiments it was shown that thiol-, amine-, and arginine-reactive sensitizers give rise to blebs that contain the same proteins. […] It was also shown that the sensitizing compounds also modify other proteins and that these proteins are released in blebs, as visualized by fluorescent bands on SDS-gels."}, "[1]": {"tested_on": "anti-nuclear antibodies (ANA)", "experiment": "Anti-nuclear antibodies (ANA) in sera of mice topically exposed to haptens", "format": "in vivo", "details": "topical exposure"}, "[2]": {"tested_on": "serum amyloid P component (SAP)", "experiment": "Serum amyloid P component (SAP) in sera of mice exposed to sensitizers", "format": "in vivo", "details": "sera of mice exposed to sensitizer"}, "human skin excerpts": {"tested_on": "human skin excerpts", "experiment": "Labeling of human skin excerpts by caged haptens", "text": "The first step is that the molecules come into contact with the skin (the stratum corneum). Many of the reactive molecules react in the stratum corneum, something that can be seen in experiments with human skin excerpts and the caged (mBBr and dBBr) haptens. However, a significant proportion of the molecules penetrate further down to the suprabasal layers of the epidermis but also the follicular pathway is of importance for bringing xenobiotics into the skin. It is likely that the penetration is due both to the acidic pH of the stratum corneum (the molecules react more slowly when the pH is low), but also because many of the available groups have reacted. In the suprabasal layers, the haptens have a hard time penetrating the cells, as the cornification of the cells creates a thick, relatively impermeable envelope around the suprabasal cells. Consequently, the haptens penetrate down to the basal layer. Here, the cell membrane is much thinner and more fluidic and the molecules can thus enter the basal cells."}},
  "data": [
    {"compound": "Cc1c(CBr)n2c(CBr)c(C)c(=O)n2c1=O", "note": "[dBBr, dibromobimane]", "values": [
      {"measurement": "Cross-links between keratins", "setting": "keratins", "result": "cause cross-links"},
      {"measurement": "Level of anti-nuclear antibodies (ANA) in sera", "setting": "[1]", "result": "increased levels"},
      {"measurement": "Level of serum amyloid P component (SAP)", "setting": "[2]", "result": "increased levels"},
      {"measurement": "Labeling of cells in the basal layer", "setting": "human skin excerpts", "result": "cells in the basal layer are labeled"}
    ]}
  ]
}
